Here are results for eleven compounds from PMC10673258, “Taxifolin as a Metallo-β-Lactamase Inhibitor in Combination with Augmentin against Verona Imipenemase 2 Expressing Pseudomonas aeruginosa” (Microorganisms, 2023).

The test system of data set [1] is PAX5VIM-2 (VIM-2 expressing bioluminescent PA). Briefly: MIC assay against PAX5VIM-2 (CLSI, MHB-2). In kind it is cell-based, Pseudomonas aeruginosa. How it is done:
MIC assays were carried out following the Clinical and Laboratory Standards Institute (CLSI) established guidelines using MHB-2 and bacterial concentrations of 5 × 10^5 CFU/mL [57, 58]. A varying concentration of quercetin derivatives or conventional antibiotics was dissolved in the media with bacteria cells. The resulting suspensions were transferred to a 96-well microliter plate at 200 μL/well (triplicate for each compound). The plate was then incubated overnight at 37 °C. The MIC was determined as the concentration at which no growth was observed.

The subject of the next data set is HEK 293T cells. Briefly: Toxicity against wild type human HEK 293T cells. In kind it is cell-based. To be noted: quercetin analogs alone; human kidney cell line HEK293T.
In another data set the target is T1, VIM-2 (Pseudomonas aeruginosa, UniProt Q9K2N0).
T1 construct: The activity of purified VIM-2 was measured spectrophotometrically; made in house
Description: VIM-2 enzyme kinetics with nitrocefin, competitive inhibition model. In kind it is biochemical. How it is done:
Nitrocefin was used as the substrate, as it is a chromogenic cephalosporin. The activity of purified VIM-2 was measured spectrophotometrically (Cytation 3, BioTek, Winooski, VT, USA) in a potassium phosphate buffer (PBS, pH = 7.4, prepared according to a published recipe).

Data set [2] is described as follows: Toxicity against wild type human HEK 293T cells. In kind it is cell-based. To be noted: HEK293T cells (wild type); quercetin analogs alone; human kidney cell line HEK293T.
Another data set relates to PAX5-WT. Description: Single dose inhibition against SBL-producing PAX5-WT. In kind it is cell-based, Pseudomonas aeruginosa. To be noted: amoxicillin 25 μM; amoxicillin:taxifolin 1:1; QATC 2:1:2. How it is done: Bacteria were diluted to 5 × 10^5 CFU/mL in MH broth (MHB). A growth control containing only bacteria and a negative control containing only MHB were added. Test wells were treated with either 25 µM meropenem, ceftazidime, amoxicillin, or doripenem, as well as 1:1 combinations of the previous antibiotics with vaborbactam. Each set was repeated in triplicate, and the final viability was determined in reference to the growth control.
Supplementary Figure S9. Single dose inhibition of taxifolin against SBL-producing PAX5-WT. Concentration of amoxicillin was 25 μM for all samples. The molar ratio of the augmentin was 2:1 (amoxicillin:clavulanate); the molar ratio of the amoxicillin:taxifolin was 1:1; the molar ratio of the QATC was 2:1:2 (amoxicillin:clavulanate:taxifolin).
Supplementary Figure S10. […]

On the set-up of data set [3]: method as in PMID 27864057. To be noted: read-out: Kd (Zn binding); cited from earlier work.
[4] abbreviates: quercetin analogs in combination with augmentin (2:1 molar amoxicillin:clavulanate), PAX5VIM-2.
The mark [5] stands for this setting: inhibitor fixed at 500 μM, nitrocefin 5 to 100 μM, PBS pH 7.4, 10 min pre-incubation, read-out: VIM-2, Ki.

As a reminder, the MIC is the lowest concentration that inhibits growth of the organism. The term CC50 denotes the concentration that lowers cell viability or growth by half. Lower therefore signals greater toxicity to the cells. Usually Ki stands for the dissociation constant of the complex between target and ligand, obtained from inhibition or displacement. For orientation: Kd means the free concentration of one partner at which half of the binding sites on the other are occupied at equilibrium, for simple one-to-one binding.

Several values for one entry are separate records, joined by “and”; a condition that tells them apart may be missing. Equal values may be shown once. Read-outs that look alike come from different tables or passages of the source.

As for chrysoeriol [compound 14], in data set [1] (setting [4]), the MIC worked out at 7.6 µg/mL. The CC50 in the data set with HEK 293T cells is above 200 µM.

Consider `COc1ccc(-c2cc(=O)c3c(O)cc(O)cc3o2)cc1O` [compound 12], for which the MIC in data set [1] (setting [4]) is 7.5 µg/mL.

On to `O=C(O)[C@H]1O[C@@H](Oc2cc(O)c3c(=O)cc(-c4ccc(O)c(O)c4)oc3c2)[C@H](O)[C@@H](O)[C@@H]1O` [11b], for which, in data set [1] (setting [4]), the MIC stood at 11.6 µg/mL. The Ki on VIM-2 (setting [5]) was found to be 52 ± 9 µM. The same compound registered a CC50 in data set [2] of 182 µM.

Regarding `CC1(C)S[C@@H]2[C@H](NC(=O)[C@H](N)c3ccc(O)cc3)C(=O)N2[C@H]1C(=O)O` [amoxicillin, reference compound], the minimal inhibitory concentration (MIC) in data set [1] (Pseudomonas aeruginosa, read-out: MIC of amoxicillin) was 100 µM and 36 µg/mL.

On to `O=c1c(O)c(-c2ccc(O)c(O)c2)oc2cc(O)c(O)c(O)c12` [compound 4, quercetagetin], for which, in data set [1] (setting [4]), the MIC is 3.9 µg/mL. At VIM-2, this compound returned a Ki of 13 ± 2 µM.

`O=c1cc(-c2ccc(O)c(O)c2)oc2c(C3OC(CO)C(O)C(O)C3O)c(O)cc(O)c12` (stereo not drawn) [1d]: the Ki at VIM-2 (setting [5]) is 34 ± 4 µM.

As to `COc1ccc(-c2oc3cc(OC)c(OC)c(O)c3c(=O)c2OC)cc1O` [compound 13], the MIC in data set [1] (setting [4]) came out at 9.4 µg/mL. This compound also gave a CC50 in data set [2] above 200 µM.

On to `O=c1cc(-c2ccc(O)c(O)c2)oc2cc(O)cc(O)c12` [11a], for which, in data set [1] (setting [4]), the MIC came out at 7.2 µg/mL. Moreover, the Ki on VIM-2 (setting [5]) was 36 ± 2 µM. The compound also registered a CC50 in data set [2] of 175 µM.

As to `O=c1c(O)c(-c2cc(O)c(O)c(O)c2)oc2cc(O)cc(O)c12` [compound 3], in data set [1] (setting [4]), the MIC was determined as 9.4 µg/mL. For the same compound, the Ki at VIM-2 (setting [5]) turned out to be 42 ± 1 µM.

Take `O=C1c2c(O)cc(O)cc2OC(c2ccc(O)c(O)c2)C1O` (stereo not drawn) [compound 5, taxifolin]: in the data set with PAX5-WT, the “benefit in the killing of SBL-only PAX5-WT” value is reported as “unable to provide any significant benefit in the killing”. Further, the “concentration inhibiting VIM-2 expressing P. aeruginosa cell proliferation” value in data set [1] (as part of a triple combination with amoxicillin and clavulanate) was below 4 µg/mL. Further, the MIC in data set [1] (setting [4]) stood at 3.1 µg/mL. Also, the Ki on VIM-2 (setting [5]) turned out to be 8 ± 1 µM. The compound further displayed a CC50 in data set [2] above 200 µM.

`O=c1c(O)c(-c2ccc(O)c(O)c2)oc2cc(O)cc(O)c12` [1a, quercetin]: in data set [3], the Kd was around 100 µM. Besides, at VIM-2 (setting [5]), the Ki amounted to 41 ± 4 µM.
